Results reported in US20240417437A1, “Linker Polypeptides” (Trutino Biosciences Inc., priority 2021, published 2024).
Values belong to the substance of their own block, whether it stands above or below them. Where no end group is shown, it is not given here. The star is where a group is joined. EDANS = O=S(=O)(O)c1cccc2c(NCCN*)cccc12

Legend:
Collagen type I = Collagen type I (Homo sapiens, UniProt P02452+P08123); details: binds to Collagen type I; Note 1 of Table 2; cited from earlier work
[1] = tested on: Heparan sulfate proteoglycans; details: DTx protein derived sequences; cited from earlier work
[2] = pH-sensitive targeting sequences; cited from earlier work
fibronectin [3] = molecular target: fibronectin (Homo sapiens, UniProt P02751); details: derived from thrombospondin, cited from earlier work; for Note 1: affinity (binds to Fibronectin): pH-sensitive targeting sequences
[4] = tested on: MC38 colorectal cancer cells; assay: MC38 colorectal cancer tumor growth inhibition study; assay type: in vivo, C57BL/6 mice; details: low dose (1 mg/kg IP BIW)
Protocol: C57BL/6 mice were subcutaneously inoculated with MC38 colorectal cancer cells. When the average tumor volume reached 70-90 mm^3, animals were randomized into 10 groups based on tumor volumes (n 7 or 6 mice per treatment group).
Tumor volumes were measured twice a week for the duration of the study.

[5] = assay type: binding; details: compared with IL-15Rα-IL-15 fusion protein
Protocol: 96-well plates were coated with 10 μg/mL of Heparin-BSA conjugate (provided by Dr. Mueller, Boerhinger Ingelheim) or control BSA for 18-22 hours at room temperature on shaker (350 rpm). After washing, wells are blocked with 2% milk powder in PBS-0.05% Tween 20 or PBS-0.05% Tween 20/1% BSA for 90 minutes. The fusion proteins were then titrated in either 2% milk powder in PBS-0.05% Tween 20 or 1% BSA/PBS-0.05% Tween 20, pH 7.5 and/or pH 6, and added for 2 hours at room temperature with shaking. After washing, an anti-mouse IL-2 biotin-labelled detection antibody (JES6-5H4, ThermoFisher), anti-6×-His Tag HRP conjugate antibody (Invitrogen, 1 mg/mL, cat #MA1-21315-HRP), or anti-human IgG HRP conjugate antibody (SouthernBiotech) was added, and binding was detected using Ultra Streptavidin HRP (ThermoFisher). The plate was developed by adding the chromogenic tetramethylbenzidine substrate (Ultra TMB, ThermoFisher). The reaction was stopped by addition of 0.5 M H2SO4, and the absorbance was read at 450-650 nm. […] Moreover, when the same pH-dependent heparin binding motif was inserted into different locations of IL-2 fusion proteins, all resulting proteins bound heparin at pH 6 with similar high affinities (FIGS. 4F and 4G). Likewise, similar binding affinities were observed when another heparin targeting sequence was engineered into different sites of IL-2 fusion proteins (FIGS. 4H-4I). […]

fibronectin [6] = assay: EDANS linker peptide binding to fibronectin-coated magnetic beads; details: peptides 20 μM
Protocol: (§1) A series of peptides comprising an MMP cleavable site with or without the addition of a targeting sequence were synthesized and conjugated to the fluorophore EDANS (5-((2-Aminoethyl)amino)naphthalene-1-sulfonic acid) (custom synthesis, ThermoFisher). […] These peptides were then tested for their ability to bind ECM proteins such as heparin, fibronectin and collagen which are found in abundance in tumor stroma.
(§2) For fibronectin and collagen binding peptide assays, streptavidin coupled magnetic beads (Mag Sepharose, Cytiva and Dynabeads, ThermoFisher, respectively) were first incubated with biotin-labelled fibronectin (Cytoskeleton) or biotin-labelled collagen IV (Prospec) for 1 hour with gentle shaking. Following multiple washes, the ECM-coated beads were then incubated with Edans Peptides (20 μM) for 2 hours at room temperature with shaking in neutral or acidic binding buffer. Beads were then washed and resuspended in 100 μL of binding buffer in a black 96-well plate. Peptide binding was quantified by measuring the fluorescence of samples using excitation/emission spectra of EDANS (Ex 340/Em 490).

collagen IV = molecular target: T1, collagen IV (Homo sapiens, UniProt P02462+P08572); assay: EDANS linker peptide binding to collagen IV-coated magnetic beads; details: peptides 20 μM, 2 hours
T1 construct: purchased Prospec
Protocol: as §1, §2

Chain of Collagen type I (P02452 162-1218 limits assumed): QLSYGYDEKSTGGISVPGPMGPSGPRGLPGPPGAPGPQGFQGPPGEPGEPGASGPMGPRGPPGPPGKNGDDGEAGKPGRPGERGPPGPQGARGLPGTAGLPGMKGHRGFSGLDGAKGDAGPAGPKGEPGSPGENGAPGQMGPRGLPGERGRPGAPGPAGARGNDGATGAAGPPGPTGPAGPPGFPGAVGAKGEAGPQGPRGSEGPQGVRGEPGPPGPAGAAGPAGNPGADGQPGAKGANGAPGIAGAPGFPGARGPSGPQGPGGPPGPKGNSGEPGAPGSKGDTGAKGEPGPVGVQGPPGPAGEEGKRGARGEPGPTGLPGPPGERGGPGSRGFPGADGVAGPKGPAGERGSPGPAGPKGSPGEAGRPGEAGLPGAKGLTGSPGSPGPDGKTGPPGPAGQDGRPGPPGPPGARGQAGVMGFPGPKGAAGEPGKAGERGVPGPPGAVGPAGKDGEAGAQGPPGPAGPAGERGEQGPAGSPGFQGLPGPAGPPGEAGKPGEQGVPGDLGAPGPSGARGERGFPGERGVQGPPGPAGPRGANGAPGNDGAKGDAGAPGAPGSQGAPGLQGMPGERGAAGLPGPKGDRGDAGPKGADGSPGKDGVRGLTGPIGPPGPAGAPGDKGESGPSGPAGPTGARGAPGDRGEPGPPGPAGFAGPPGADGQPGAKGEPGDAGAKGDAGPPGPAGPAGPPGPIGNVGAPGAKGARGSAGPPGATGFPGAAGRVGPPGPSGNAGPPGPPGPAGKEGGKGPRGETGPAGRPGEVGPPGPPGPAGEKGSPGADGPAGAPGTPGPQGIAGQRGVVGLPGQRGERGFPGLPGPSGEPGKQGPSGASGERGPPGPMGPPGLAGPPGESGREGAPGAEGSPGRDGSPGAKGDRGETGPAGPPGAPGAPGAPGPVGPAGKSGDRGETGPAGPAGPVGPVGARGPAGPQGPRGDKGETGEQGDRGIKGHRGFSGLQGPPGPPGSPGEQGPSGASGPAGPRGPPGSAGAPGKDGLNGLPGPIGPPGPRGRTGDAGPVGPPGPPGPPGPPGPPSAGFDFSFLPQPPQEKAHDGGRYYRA
Chain of Collagen type I (P08123 80-1119 limits assumed): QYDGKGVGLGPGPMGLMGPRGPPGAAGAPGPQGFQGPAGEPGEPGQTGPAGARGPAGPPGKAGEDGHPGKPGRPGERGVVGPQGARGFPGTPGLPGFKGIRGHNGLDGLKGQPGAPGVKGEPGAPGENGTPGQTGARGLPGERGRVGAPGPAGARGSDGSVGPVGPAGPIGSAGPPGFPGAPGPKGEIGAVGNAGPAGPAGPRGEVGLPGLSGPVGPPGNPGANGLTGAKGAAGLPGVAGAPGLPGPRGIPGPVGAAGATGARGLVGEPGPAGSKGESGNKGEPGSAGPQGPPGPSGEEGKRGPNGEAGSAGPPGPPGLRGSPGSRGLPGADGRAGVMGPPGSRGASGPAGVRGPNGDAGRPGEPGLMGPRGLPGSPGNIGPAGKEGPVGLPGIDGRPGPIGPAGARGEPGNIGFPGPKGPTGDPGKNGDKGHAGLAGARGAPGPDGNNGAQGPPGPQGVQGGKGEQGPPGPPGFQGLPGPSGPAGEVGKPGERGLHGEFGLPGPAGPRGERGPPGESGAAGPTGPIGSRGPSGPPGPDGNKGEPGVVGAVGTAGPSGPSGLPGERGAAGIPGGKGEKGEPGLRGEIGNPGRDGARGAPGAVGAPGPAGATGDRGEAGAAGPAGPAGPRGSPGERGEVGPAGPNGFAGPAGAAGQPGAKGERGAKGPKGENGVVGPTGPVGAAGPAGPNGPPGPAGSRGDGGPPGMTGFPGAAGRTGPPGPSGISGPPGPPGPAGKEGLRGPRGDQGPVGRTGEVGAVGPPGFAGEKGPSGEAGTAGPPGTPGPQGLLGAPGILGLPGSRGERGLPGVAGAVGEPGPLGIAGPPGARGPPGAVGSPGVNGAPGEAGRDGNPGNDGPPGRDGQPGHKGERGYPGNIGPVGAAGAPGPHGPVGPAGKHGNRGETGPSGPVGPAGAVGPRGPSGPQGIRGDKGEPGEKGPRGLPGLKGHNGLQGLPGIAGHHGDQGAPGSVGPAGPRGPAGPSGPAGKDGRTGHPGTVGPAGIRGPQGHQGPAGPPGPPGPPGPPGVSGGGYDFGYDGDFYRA
Chain of fibronectin (Homo sapiens, UniProt P02751) (P02751 32-2477, species assumed): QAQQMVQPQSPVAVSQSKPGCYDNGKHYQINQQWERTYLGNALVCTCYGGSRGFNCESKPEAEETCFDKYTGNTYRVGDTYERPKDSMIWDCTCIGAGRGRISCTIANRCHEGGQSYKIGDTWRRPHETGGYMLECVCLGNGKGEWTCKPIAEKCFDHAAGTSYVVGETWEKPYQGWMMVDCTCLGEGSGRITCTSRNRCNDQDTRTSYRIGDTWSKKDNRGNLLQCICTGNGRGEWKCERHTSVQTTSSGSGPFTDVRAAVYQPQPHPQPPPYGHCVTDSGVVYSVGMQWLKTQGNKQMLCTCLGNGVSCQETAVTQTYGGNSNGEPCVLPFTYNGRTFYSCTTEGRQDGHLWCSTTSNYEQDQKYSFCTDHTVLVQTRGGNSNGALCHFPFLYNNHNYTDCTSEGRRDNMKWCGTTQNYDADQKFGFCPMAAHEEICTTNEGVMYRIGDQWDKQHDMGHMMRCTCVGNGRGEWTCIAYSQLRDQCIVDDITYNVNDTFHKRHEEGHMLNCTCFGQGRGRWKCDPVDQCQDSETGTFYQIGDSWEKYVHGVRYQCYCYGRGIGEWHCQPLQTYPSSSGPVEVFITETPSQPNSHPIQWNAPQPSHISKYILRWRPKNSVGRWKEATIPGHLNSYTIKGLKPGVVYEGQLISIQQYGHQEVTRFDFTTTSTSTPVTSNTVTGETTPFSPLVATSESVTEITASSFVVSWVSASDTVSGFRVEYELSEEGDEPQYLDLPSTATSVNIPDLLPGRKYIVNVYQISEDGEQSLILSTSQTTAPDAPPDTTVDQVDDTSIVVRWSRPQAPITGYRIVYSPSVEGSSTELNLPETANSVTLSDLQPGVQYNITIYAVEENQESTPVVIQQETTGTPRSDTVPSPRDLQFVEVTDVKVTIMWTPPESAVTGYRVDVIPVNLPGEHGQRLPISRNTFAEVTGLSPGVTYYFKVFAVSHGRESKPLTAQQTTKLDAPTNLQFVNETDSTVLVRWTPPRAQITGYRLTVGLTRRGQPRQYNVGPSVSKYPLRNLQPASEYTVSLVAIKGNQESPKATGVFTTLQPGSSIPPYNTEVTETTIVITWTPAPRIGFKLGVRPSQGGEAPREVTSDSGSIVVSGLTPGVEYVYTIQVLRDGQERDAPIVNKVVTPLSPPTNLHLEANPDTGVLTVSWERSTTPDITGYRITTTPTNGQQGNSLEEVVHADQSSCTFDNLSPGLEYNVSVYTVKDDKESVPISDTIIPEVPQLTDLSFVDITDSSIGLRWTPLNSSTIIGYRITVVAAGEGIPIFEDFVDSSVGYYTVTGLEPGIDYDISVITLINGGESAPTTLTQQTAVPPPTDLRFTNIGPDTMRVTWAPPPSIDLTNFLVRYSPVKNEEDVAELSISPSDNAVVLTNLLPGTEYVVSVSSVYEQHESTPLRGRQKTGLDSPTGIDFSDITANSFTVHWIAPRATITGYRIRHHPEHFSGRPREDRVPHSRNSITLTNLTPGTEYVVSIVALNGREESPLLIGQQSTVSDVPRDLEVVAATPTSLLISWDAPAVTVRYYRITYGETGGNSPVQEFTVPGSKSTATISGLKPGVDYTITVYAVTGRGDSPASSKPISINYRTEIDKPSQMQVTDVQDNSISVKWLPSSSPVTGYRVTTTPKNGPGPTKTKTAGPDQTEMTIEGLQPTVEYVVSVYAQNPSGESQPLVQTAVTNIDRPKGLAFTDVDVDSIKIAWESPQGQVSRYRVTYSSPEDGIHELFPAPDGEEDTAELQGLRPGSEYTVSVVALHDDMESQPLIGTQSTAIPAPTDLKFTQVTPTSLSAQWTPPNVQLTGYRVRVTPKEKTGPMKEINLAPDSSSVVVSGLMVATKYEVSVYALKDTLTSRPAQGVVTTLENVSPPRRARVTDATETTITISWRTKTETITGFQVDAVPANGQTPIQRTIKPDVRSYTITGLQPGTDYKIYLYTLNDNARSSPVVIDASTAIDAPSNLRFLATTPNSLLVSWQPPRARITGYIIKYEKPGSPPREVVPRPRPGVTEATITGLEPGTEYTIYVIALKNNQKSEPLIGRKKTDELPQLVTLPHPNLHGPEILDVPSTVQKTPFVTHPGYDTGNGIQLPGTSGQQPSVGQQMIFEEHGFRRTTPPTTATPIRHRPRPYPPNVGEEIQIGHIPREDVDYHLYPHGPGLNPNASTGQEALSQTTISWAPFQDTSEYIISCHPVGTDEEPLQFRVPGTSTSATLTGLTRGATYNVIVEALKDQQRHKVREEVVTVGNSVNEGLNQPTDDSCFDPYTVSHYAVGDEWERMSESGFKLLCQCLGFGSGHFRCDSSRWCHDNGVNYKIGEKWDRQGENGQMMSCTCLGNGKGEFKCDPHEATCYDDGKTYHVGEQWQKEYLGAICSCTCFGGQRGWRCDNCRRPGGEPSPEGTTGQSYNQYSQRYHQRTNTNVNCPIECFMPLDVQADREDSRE

Substance: 189 (RRANAALKAGELYKSILYGC; Synthetic: Collagen type I) [Construct 189]
Kd (Collagen type I): 860 nM

Substance: 190 (RRANAALKAGELYKCILYGC; Synthetic: Collagen type I) [Construct 190]
Kd (Collagen type I): 10 nM

Substance: 191 (MIVIELGTNPLKSSGIENGAFQGMKK; Synthetic: Collagen type I) [Construct 191]
Kd (Collagen type I): 394 nM

Substance: 192 (LRELHLNNN; Synthetic: Collagen type I) [Construct 192]
Kd (Collagen type I): 170 nM

Substance: 194 (TKKTLRT; Synthetic: Collagen type I) [Construct 194]
Kd (Collagen type I): ≤ 100000 nM

Substance: 195 (CPKESCNLFVLKD; Synthetic: Collagen type I) [Construct 195]
Kd (Collagen type I): 681 nM

Substance: 197 (HVWMQAPGGGK; Synthetic: Collagen type I, H-v-F/W-Q/ M-Q-P/A-P/K motif) [Construct 197]
Kd (Collagen type I): 61000 nM

Substance: 639 (NGRKIRMRCRAIDGD; Synthetic: Heparan sulfate proteoglycans ; binds to HSGP with high affinity (DTx protein)) [Construct 639]
Note 1: binds to HSGP, affinity [1]: binds to HSGP with high affinity (DTx protein)

Substance: 640 (DVIRDKTKTKIESLK; Synthetic: Heparan sulfate proteoglycans ; binds to HSGP with low affinity (DTx protein)) [Construct 640]
Note 1: binds to HSGP, affinity [1]: binds to HSGP with low affinity (DTx protein)

Substance: 642 (KHAHLKKQVSDHIAVY; Synthetic: Heparin; binds to heparin at low pH (high affinity)) [Construct 642]
Note 1: binds to heparin at low pH (affinity) [2]: binds to heparin at low pH (high affinity)

Substance: 643 (TTEPSEEHNHHK; Synthetic: Heparin; binds to heparin at low pH (low affinity)) [Construct 643]
Note 1: binds to heparin at low pH (affinity) [2]: binds to heparin at low pH (low affinity)

Substance: 644 (KHAHL; Synthetic: Heparin; binds to heparin at low pH (lower affinity)) [Construct 644]
Note 1: binds to heparin at low pH (affinity) [2]: binds to heparin at low pH (lower affinity)

Substance: 645 (TTEPSEEHNHHK; Synthetic: Heparin; binds to heparin at low pH (lower affinity)) [Construct 645]
Note 1: binds to heparin at low pH (affinity) [2]: binds to heparin at low pH (lower affinity)

Substance: 646 (TTEPSEEHNHHKHHDK; Synthetic: Heparin; binds to heparin at low pH (lower affinity)) [Construct 646]
Note 1: binds to heparin at low pH (affinity) [2]: binds to heparin at low pH (lower affinity)

Substance: 647 (HKGQHR; Synthetic: Heparin; binds to heparin at low pH (lower affinity)) [Construct 647]
Note 1: binds to heparin at low pH (affinity) [2]: binds to heparin at low pH (lower affinity)

Substance: 648 (KVEHRVKKRPPTWRHNVRAKYT; Synthetic: Heparin; binds to heparin at low pH) [Construct 648]
Note 1: binds to heparin at low pH (affinity) [2]: binds to heparin at low pH

Substance: 649 (GGKVEHRVKKRPPTWRHNVRAKYT; Synthetic: Heparin; binds to heparin at low pH) [Construct 649]
Note 1: binds to heparin at low pH (affinity) [2]: binds to heparin at low pH

Substance: 650 (KKRPPTWRHNV; Synthetic: Heparin; binds to heparin at low pH) [Construct 650]
Note 1: binds to heparin at low pH (affinity) [2]: binds to heparin at low pH

Substance: 653 (GGWSHW; Synthetic: Fibronectin; derived from thrombospondin (highest affinity)) [Construct 653]
Note 2: pH dependence of binding to Fibronectin (fibronectin [3]): binds better at lower pH
Note 1: affinity (binds to Fibronectin) (fibronectin [3]): (highest affinity)

Substance: 655 (KRFKQDGGWSHWSP; Synthetic: Fibronectin; derived from thrombospondin (medium affinity)) [Construct 655]
Note 1: affinity (binds to Fibronectin) (fibronectin [3]): derived from thrombospondin (medium affinity)

Substance: 656 (GGWSHWSPWSS; Synthetic: Fibronectin; derived from thrombospondin (medium affinity)) [Construct 656]
Note 1: affinity (binds to Fibronectin) (fibronectin [3]): derived from thrombospondin (medium affinity)

Substance: Construct NNN: huIL2(C125S)-SGGKLWVLPK-MMPcs1-2x(G4S)-huIL2Ra(1-219;M25I)-GSGGGG-huIgG1(LALA); col IV
efficacy (TGI) in low dose treatment groups [4]: superior efficacy over parental non-targeting constructs

heparin binding of IL-15 linker polypeptide fusion proteins [5]: lost
Substance: Construct VVV: huIL15Ra(1-77)-linker-huIL15-(SG3)-GPLGVRG-4x(G4S)-IL2Rb(1-214)-6xHis; no TME

heparin binding of IL-15 linker polypeptide fusion proteins [5]: recovered
Substance: Construct WWW: huIL15Ra(1-77)-linker-huIL15-(SG3)-GPLGVRG-gsVRIQRKKEKMKET-3x(G4S)-IL2Rb(1-214)-6xHis

peptide binding to fibronectin at pH 6 vs. pH 7.5 (fibronectin [6]): enhanced binding at pH 6
peptide binding to fibronectin (EDANS fluorescence) (fibronectin [6]; 2 hours): able to bind fibronectin
Substance: peptide 13: EDANS-conjugated GGGWSHWGPLGVRG-* (SEQ ID NO: 671); pH dependent fibronectin (GGGWSHWGPLGVRG-{EDANS})

peptide binding to collagen IV (EDANS fluorescence) (collagen IV): strongly bound
Substance: peptide 14: EDANS-conjugated KLWVLPKGPLGVRG-* (SEQ ID NO: 672); Collagen IV (KLWVLPKGPLGVRG-{EDANS})

peptide binding to collagen IV (EDANS fluorescence) (collagen IV): bound to a lesser extent
Substance: peptide 15: EDANS-conjugated GGGSGLHERHLNNN-* (SEQ ID NO: 673); Collagen I (GGGSGLHERHLNNN-{EDANS})
